In ChEMBL document CHEMBL1201862, “PubChem BioAssay data set” (2004):
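These data come from cells grown in 96-well plates and exposed to compound for 48 hours at five concentrations. GI50: concentration for 50% inhibition of growth.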 Activity calls are given as the source filed them. No stated cut-off is given here; in the data, active = GI50 up to about 1.1 µM and inactive = higher.

Tests used:
Assay in all cases: NCI tumour cell line growth inhibition, 48 h
UACC-257 = system: UACC-257
MOLT-4 = system: MOLT-4
NCI-H522 = system: NCI-H522
MDA-N = system: MDA-N
RPMI-8226 = system: RPMI-8226
HCT-15 = system: HCT-15
COLO 205 = system: COLO 205
EKVX = system: EKVX
OVCAR-4 = system: OVCAR-4
SF-539 = system: SF-539
SF-268 = system: SF-268
UACC-62 = system: UACC-62
NCI-H460 = system: NCI-H460
HCC 2998 = system: HCC 2998
Hs-578T = system: Hs-578T
UO-31 = system: UO-31
NCI-H226 = system: NCI-H226
OVCAR-5 = system: OVCAR-5
SK-MEL-2 = system: SK-MEL-2
Malme-3M = system: Malme-3M

| SMILES | GI50 (UACC-257) | GI50 (MOLT-4) | GI50 (NCI-H522) | GI50 (MDA-N) | GI50 (RPMI-8226) | GI50 (HCT-15) [µM] | GI50 (COLO 205) | GI50 (EKVX) | GI50 (OVCAR-4) | GI50 (SF-539) | GI50 (SF-268) | GI50 (UACC-62) | GI50 (NCI-H460) | GI50 (HCC 2998) | GI50 (Hs-578T) | GI50 (UO-31) | GI50 (NCI-H226) | GI50 (OVCAR-5) | GI50 (SK-MEL-2) | GI50 (Malme-3M) |
| --- | --- | --- | --- | --- | --- | --- | --- | --- | --- | --- | --- | --- | --- | --- | --- | --- | --- | --- | --- | --- |
| COC(=O)c1ccc(/C=C2\Oc3cc(O)ccc3C2=O)cc1 | > 100 µM (inactive) | 43.7 µM (inactive) | 20 µM (inactive) | 67.3 µM (inactive) | 29.4 µM (inactive) | 53.3 | > 100 µM (inactive) | 49.2 µM (inactive) | 62.8 µM (inactive) | > 100 µM (inactive) | 66.1 µM (inactive) | > 100 µM (inactive) | > 100 µM (inactive) | > 100 µM (inactive) | 52.4 µM (inactive) | 46.3 µM (inactive) | 55.3 µM (inactive) |  |  |  |
| COc1ccc(/C=C2\S/C(=N/Nc3nc(-c4ccccc4)cs3)NC2=O)cc1OC | 33.3 µM (inactive) | 3.07 µM (inactive) | 18.5 µM (inactive) | 15.4 µM (inactive) |  | 21.5 | 35.6 µM (inactive) | 22.6 µM (inactive) | 27.2 µM (inactive) | 24.3 µM (inactive) | 29 µM (inactive) | 23.6 µM (inactive) | 23 µM (inactive) | 22.4 µM (inactive) | 24.6 µM (inactive) | 15.6 µM (inactive) |  | 23.4 µM (inactive) | 19.1 µM (inactive) |  |
| CCc1nn(CN2CCOCC2)c(=S)n1/N=C/c1ccc(-c2ccc(Cl)cc2)o1 | > 100 µM (inactive) | > 100 µM (inactive) | > 100 µM (inactive) | > 100 µM (inactive) | 51.5 µM (inactive) | > 100 |  | > 100 µM (inactive) | > 100 µM (inactive) | > 100 µM (inactive) | > 100 µM (inactive) |  | > 100 µM (inactive) |  | > 100 µM (inactive) | > 100 µM (inactive) | > 100 µM (inactive) | > 100 µM (inactive) | > 100 µM (inactive) |  |
| O=C1C(=Cc2ccccc2O)N=C(c2ccccc2)N1n1c(-c2ccccc2)nc2ccccc2c1=O | 29.9 µM (inactive) | 26.7 µM (inactive) | 33.1 µM (inactive) | 32.4 µM (inactive) | 38.6 µM (inactive) | 40.4 | 35.7 µM (inactive) | 30.6 µM (inactive) |  | 21.8 µM (inactive) | 21.3 µM (inactive) | 33.7 µM (inactive) | 29.8 µM (inactive) | 30.7 µM (inactive) | 35.6 µM (inactive) | 27.5 µM (inactive) | 31.6 µM (inactive) |  |  | 45.7 µM (inactive) |
| CC[C@@H]1CC[C@@H]2[C@H](CC[C@]3(C)[C@@H](OS(=O)(=O)c4ccc(C)cc4)CC[C@@H]23)[C@H]1CO | 80.2 µM (inactive) | > 100 µM (inactive) | > 100 µM (inactive) | > 100 µM (inactive) | 17 µM (inactive) | 82.4 | 12.4 µM (inactive) | 12.2 µM (inactive) | > 100 µM (inactive) | 81.5 µM (inactive) | > 100 µM (inactive) |  | > 100 µM (inactive) | > 100 µM (inactive) | > 100 µM (inactive) | 21.3 µM (inactive) | > 100 µM (inactive) | > 100 µM (inactive) |  | > 100 µM (inactive) |
| C=C(C)C1Cc2c(cc(OC)c3c(=O)c4cccc(O)c4oc23)O1 (stereo not given) | 33 µM (inactive) | > 100 µM (inactive) | 16.6 µM (inactive) | 20 µM (inactive) |  | 47.6 | 56.9 µM (inactive) | > 100 µM (inactive) | 18.7 µM (inactive) | 18.4 µM (inactive) | 20.4 µM (inactive) | 18 µM (inactive) | 28.6 µM (inactive) | 34.1 µM (inactive) | 25.6 µM (inactive) | 18 µM (inactive) | 21.2 µM (inactive) | 72.9 µM (inactive) | 18.6 µM (inactive) | 25.2 µM (inactive) |
| C=CCNC1=C2C[C@@H](C)C[C@@H](OC)[C@H](OC(=O)CCN)[C@H](C)/C=C(\C)[C@@H](OC(N)=O)[C@H](OC)/C=C\C=C(/C)C(=O)NC(=CC1=O)C2=O | 2.42 µM (inactive) | 3.86 µM (inactive) | 5.3 µM (inactive) | 1.21 µM (inactive) | 6.08 µM (inactive) | 9.57 | 0.718 µM (active) | 8.75 µM (inactive) | 8.93 µM (inactive) |  | 9.57 µM (inactive) | 2.9 µM (inactive) | 2.77 µM (inactive) | 1.06 µM (active) | 14.5 µM (inactive) | 11.2 µM (inactive) |  | 10.8 µM (inactive) | 1.9 µM (inactive) | 2.67 µM (inactive) |
| COc1cccc2c1OC(c1ccc(C#N)cc1)C([N+](=O)[O-])=C2 (stereo not given) | 1.38 µM (inactive) |  | 0.214 µM (active) | 1.52 µM (inactive) |  | 1.7 | 1.74 µM (inactive) | 6.24 µM (inactive) | 1.68 µM (inactive) | 1.91 µM (inactive) | 4.12 µM (inactive) | 1.6 µM (inactive) | 2.22 µM (inactive) | 1.76 µM (inactive) | 1.78 µM (inactive) | 1.64 µM (inactive) | 2.98 µM (inactive) | 1.95 µM (inactive) | 2.01 µM (inactive) | 1.61 µM (inactive) |
| Clc1sc(Cl)c2c1[C@H](Br)C[C@@H]2Cl | 29.4 µM (inactive) | 19.1 µM (inactive) | 16.9 µM (inactive) | 41.7 µM (inactive) | 30.2 µM (inactive) | 17.1 | 20.1 µM (inactive) | 35.9 µM (inactive) | 55.8 µM (inactive) | 15.8 µM (inactive) | 23 µM (inactive) | 20.9 µM (inactive) | 41.6 µM (inactive) | 37.8 µM (inactive) | 22.8 µM (inactive) | 18.3 µM (inactive) |  | > 100 µM (inactive) | 59.8 µM (inactive) | 21.9 µM (inactive) |
| CC1=CC(C/C(C)=C/COc2ccc3ccc(=O)oc3c2)OC1=O (stereo not given) | 47.4 µM (inactive) | 49.8 µM (inactive) | > 100 µM (inactive) | 68.9 µM (inactive) |  | 95.9 | > 100 µM (inactive) | > 100 µM (inactive) | > 100 µM (inactive) | > 100 µM (inactive) | > 100 µM (inactive) | > 100 µM (inactive) | > 100 µM (inactive) | > 100 µM (inactive) | > 100 µM (inactive) | > 100 µM (inactive) | > 100 µM (inactive) | > 100 µM (inactive) |  |  |
| CC(C)(C)OC(=O)n1c2ccccc2c2c(=O)nc(N3CCCCC3)sc21 | > 100 µM (inactive) | > 100 µM (inactive) | > 100 µM (inactive) | > 100 µM (inactive) | > 100 µM (inactive) | > 100 | > 100 µM (inactive) | > 100 µM (inactive) | > 100 µM (inactive) | > 100 µM (inactive) | 58.9 µM (inactive) | > 100 µM (inactive) | 65.2 µM (inactive) |  | > 100 µM (inactive) | 22.3 µM (inactive) |  | > 100 µM (inactive) | > 100 µM (inactive) | > 100 µM (inactive) |
| CN(C)CCOC1(Cc2ccc(Cl)cc2Cl)CCC(C(C)(C)C)CC1 (stereo not given) | 2.04 µM (inactive) | 1.86 µM (inactive) | 1.79 µM (inactive) | 1.81 µM (inactive) | 2.16 µM (inactive) | 1.85 | 1.62 µM (inactive) |  | 1.81 µM (inactive) | 4.36 µM (inactive) | 5.01 µM (inactive) | 2.12 µM (inactive) | 1.66 µM (inactive) | 1.63 µM (inactive) | 1.97 µM (inactive) |  |  | 2.78 µM (inactive) | 1.72 µM (inactive) | 2.25 µM (inactive) |
| COC(=O)C(Cc1ccccc1)NC(=O)CCCNC(=O)OCc1ccccc1 (stereo not given) |  | 29.2 µM (inactive) | > 100 µM (inactive) | 63.7 µM (inactive) | 87.3 µM (inactive) | > 100 | 77.4 µM (inactive) | > 100 µM (inactive) | > 100 µM (inactive) |  | > 100 µM (inactive) | 49.9 µM (inactive) | > 100 µM (inactive) | > 100 µM (inactive) | > 100 µM (inactive) | > 100 µM (inactive) | > 100 µM (inactive) | > 100 µM (inactive) |  | 7.33 µM (inactive) |
| CSc1ncc2c(C#N)c3sc4ccccc4n3c(=O)c2n1 | > 100 µM (inactive) | > 100 µM (inactive) |  | > 100 µM (inactive) | > 100 µM (inactive) | 80.4 | > 100 µM (inactive) | > 100 µM (inactive) | 45.8 µM (inactive) | 40.1 µM (inactive) | 16.1 µM (inactive) | > 100 µM (inactive) | 22.4 µM (inactive) | > 100 µM (inactive) | 24.6 µM (inactive) | > 100 µM (inactive) | 26.1 µM (inactive) | > 100 µM (inactive) | > 100 µM (inactive) | > 100 µM (inactive) |
| CC(=O)OCc1cn(S(=O)(=O)c2ccc(C)cc2)cn1 |  | 46.5 µM (inactive) | 64 µM (inactive) | 12.5 µM (inactive) | > 100 µM (inactive) | 18.5 | 73.6 µM (inactive) | > 100 µM (inactive) | > 100 µM (inactive) | 16.4 µM (inactive) | 37.2 µM (inactive) | 75.2 µM (inactive) | 30.1 µM (inactive) | > 100 µM (inactive) | 36.5 µM (inactive) | > 100 µM (inactive) | > 100 µM (inactive) |  |  | > 100 µM (inactive) |
| CC(=O)OCC1OC(c2nnc(C)o2)=CC(OC(C)=O)C1OC(C)=O (stereo not given) | > 100 µM (inactive) | > 100 µM (inactive) | > 100 µM (inactive) | > 100 µM (inactive) | > 100 µM (inactive) |  | > 100 µM (inactive) | > 100 µM (inactive) | > 100 µM (inactive) | > 100 µM (inactive) | > 100 µM (inactive) |  | > 100 µM (inactive) |  | > 100 µM (inactive) | > 100 µM (inactive) | > 100 µM (inactive) | > 100 µM (inactive) |  | > 100 µM (inactive) |
